Assay results published in the NIST ThermoML archive (doi:10.1016/j.fluid.2009.09.005).

How the values were obtained:
[1] = wn = mass fraction of the nth substance listed; conditions: Capillary rise
[2] = Capillary rise

FC(F)C(F)(F)F [pentafluoroethane] + CC(F)F
[1]
Conditions | surface tension liquid-gas [mN/m]
243.08 K, w1 = 0.2019 | 16.5
243.16 K, w1 = 0.097 | 17
243.22 K, w1 = 0.2996 | 15.6
248.09 K, w1 = 0.2019 | 15.8
248.12 K, w1 = 0.2996 | 15
248.13 K, w1 = 0.097 | 16.2
253.12 K, w1 = 0.2019 | 15.1
253.13 K, w1 = 0.2996 | 14.3
253.55 K, w1 = 0.097 | 15.3
258.11 K, w1 = 0.097 | 14.6
258.16 K, w1 = 0.2019 | 14.4
258.16 K, w1 = 0.2996 | 13.7
263.06 K, w1 = 0.097 | 13.9
263.17 K, w1 = 0.2996 | 13
263.19 K, w1 = 0.2019 | 13.5
268.12 K, w1 = 0.097 | 13.3
268.17 K, w1 = 0.2019 | 12.9
268.18 K, w1 = 0.2996 | 12.2
273.18 K, w1 = 0.097 | 12.5
273.18 K, w1 = 0.2996 | 11.4
273.19 K, w1 = 0.2019 | 12.2
278.17 K, w1 = 0.2996 | 10.6
278.18 K, w1 = 0.097 | 11.8
278.42 K, w1 = 0.2019 | 11.4
283.13 K, w1 = 0.097 | 11.2
283.15 K, w1 = 0.2019 | 10.6
283.17 K, w1 = 0.2996 | 10.1
288.16 K, w1 = 0.2019 | 9.9
288.17 K, w1 = 0.097 | 10.6
288.18 K, w1 = 0.2996 | 9.5
293.14 K, w1 = 0.2019 | 9.4
293.17 K, w1 = 0.097 | 9.8
293.18 K, w1 = 0.2996 | 8.7
298.08 K, w1 = 0.2019 | 8.8
298.1 K, w1 = 0.097 | 9.2
298.11 K, w1 = 0.2996 | 8
303.13 K, w1 = 0.2019 | 8
303.17 K, w1 = 0.097 | 8.5
303.18 K, w1 = 0.2996 | 7.4
308.1 K, w1 = 0.097 | 7.9
308.1 K, w1 = 0.2019 | 7.4
308.12 K, w1 = 0.2996 | 6.7
313.11 K, w1 = 0.2019 | 6.7
313.16 K, w1 = 0.097 | 7.2
313.19 K, w1 = 0.2996 | 6.1
318.11 K, w1 = 0.2019 | 6.1
318.12 K, w1 = 0.097 | 6.5
318.16 K, w1 = 0.2996 | 5.5
323.14 K, w1 = 0.2019 | 5.4
323.16 K, w1 = 0.097 | 5.8
323.17 K, w1 = 0.2996 | 5
328.1 K, w1 = 0.2019 | 4.8
328.11 K, w1 = 0.097 | 5.2
328.16 K, w1 = 0.2996 | 4.3

CC(C)C [2-methylpropane]
[2]
Conditions | surface tension liquid-gas [mN/m]
313.17 K | 8.28
318.13 K | 7.704
323.16 K | 7.182
328.12 K | 6.691
328.13 K | 6.669

CC(F)F [1,1-difluoroethane]
[2]
Conditions | surface tension liquid-gas [mN/m]
298.18 K | 9.747
303.23 K | 9.062
308.19 K | 8.505
313.13 K | 7.731
